Data published in patent publication US7998998B2, “Therapeutic substituted lactams” (Allergan, Inc., priority 2007, dated 2011).

Experiments:
EP2 [1] = target: T1, EP2 (Homo sapiens, UniProt P43116); test: EP2 cAMP assay; format: cell-based
From the text: (§1) U.S. patent application Ser. No. 11/553,143, filed on Oct. 26, 2006, incorporated by reference herein, describes the methods used to obtain the in vitro data in the table below.

EP2 [2] = target: T1, EP2; test: EP2 flipr functional assay; format: cell-based
From the text: as §1

EP4 [3] = target: T2, EP4 (Homo sapiens, UniProt P35408); test: EP4 flipr functional assay; format: cell-based
From the text: as §1

EP2 [4] = target: T1, EP2; test: EP2 binding (KI)
From the text: as §1

EP4 [5] = target: T2, EP4; test: EP4 binding (KI)
From the text: as §1

hDP = target: T3, hDP (Homo sapiens, UniProt Q13258); test: Other receptors functional assay, hDP; format: cell-based
T3 sequence (Q13258 1-359): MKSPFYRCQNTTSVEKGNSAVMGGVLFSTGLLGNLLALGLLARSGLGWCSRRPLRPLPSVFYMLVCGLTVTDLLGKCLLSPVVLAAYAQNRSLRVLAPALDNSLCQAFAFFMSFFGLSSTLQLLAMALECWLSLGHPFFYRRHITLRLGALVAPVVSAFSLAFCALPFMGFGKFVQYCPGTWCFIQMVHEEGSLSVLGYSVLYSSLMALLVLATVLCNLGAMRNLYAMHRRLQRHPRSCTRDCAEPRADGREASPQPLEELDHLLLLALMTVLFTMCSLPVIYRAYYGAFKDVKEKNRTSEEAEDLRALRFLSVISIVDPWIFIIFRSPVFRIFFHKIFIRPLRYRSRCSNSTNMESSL
From the text: as §1

T2 sequence (P35408 whole entry): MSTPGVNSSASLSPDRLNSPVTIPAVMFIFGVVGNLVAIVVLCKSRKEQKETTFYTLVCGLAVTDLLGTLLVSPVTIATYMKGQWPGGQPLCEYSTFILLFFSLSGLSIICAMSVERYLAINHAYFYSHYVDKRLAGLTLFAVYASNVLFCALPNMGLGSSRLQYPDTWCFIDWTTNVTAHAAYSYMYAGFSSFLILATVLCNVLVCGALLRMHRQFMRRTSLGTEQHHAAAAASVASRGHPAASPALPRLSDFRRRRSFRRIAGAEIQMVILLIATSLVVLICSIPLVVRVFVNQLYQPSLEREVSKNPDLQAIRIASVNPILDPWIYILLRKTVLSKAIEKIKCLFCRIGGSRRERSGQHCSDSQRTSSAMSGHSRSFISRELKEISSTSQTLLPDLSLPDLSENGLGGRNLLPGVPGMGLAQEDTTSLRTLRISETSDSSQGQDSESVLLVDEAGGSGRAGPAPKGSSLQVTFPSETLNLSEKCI
T1 sequence (P43116 whole entry): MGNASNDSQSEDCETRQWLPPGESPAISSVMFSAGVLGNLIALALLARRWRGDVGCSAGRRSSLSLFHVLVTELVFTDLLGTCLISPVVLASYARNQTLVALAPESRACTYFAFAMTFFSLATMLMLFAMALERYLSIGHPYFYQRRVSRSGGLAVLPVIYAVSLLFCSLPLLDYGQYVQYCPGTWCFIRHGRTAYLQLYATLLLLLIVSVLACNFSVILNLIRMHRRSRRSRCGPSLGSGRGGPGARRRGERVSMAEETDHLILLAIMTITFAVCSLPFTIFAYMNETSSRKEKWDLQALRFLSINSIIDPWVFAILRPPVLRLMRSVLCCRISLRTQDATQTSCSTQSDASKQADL

EC50 (EP2 [1])	EC50 (EP2 [2])	EC50 (EP4 [3])	Ki (EP2 [4])	Ki (EP4 [5])	EC50 (hDP)	Structure (SMILES)
0.004 µM	> 10 µM	> 10 µM	0.159 µM	7.99 µM	–	O=C(O)c1ccc(COC[C@H]2CCC(=O)N2CCc2cc(Cl)cc(Cl)c2)s1 [(R)-5-(((1-(3,5-dichlorophenethyl)-5-oxopyrrolidin-2-yl)methoxy)methyl)thiophene-2-carboxylic acid]
0.0022 µM	8.41 µM	–	0.024 µM	> 10 µM	6.22 µM	O=C(O)c1ccc(CCC[C@H]2CCC(=O)N2CCc2cc(Cl)cc(Cl)c2)s1 [(S)-5-(3-(1-(3,5-dichlorophenethyl)-5-oxopyrrolidin-2-yl)propyl)thiophene-2-carboxylic acid]
